Where two headings read alike, the source gives them in different places.
Columns and labels:
Type in all cases: in vivo
[1] = test system: rice (Oryza sativa); test: Test C flooded paddy test plant response; settings: Oryza sativa; Flood, 250 g ai/ha; scale of 0 to 100 where 0 is no effect and 100 is complete control; 13 to 15 days; read-out: Rice plant response rating
Method in brief: (§1)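 Flooded-pot format, 3 cm water over soil maintained for the test duration; test compounds dispensed into the water at the 2-leaf stage. Greenhouse holding 13 to 15 days. Plants evaluated visually relative to untreated controls, 0 meaning no effect and 100 complete control.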

[2] = test system: small-flower umbrella sedge (Cyperus difformis); test: Test C flooded paddy test plant response; settings: Cyperus difformis; Flood, 250 g ai/ha; scale of 0 to 100 where 0 is no effect and 100 is complete control; 13 to 15 days; read-out: Sedge, Umbrella plant response rating
Method in brief: as §1

[3] = test system: ducksalad (Heteranthera limosa); test: Test C flooded paddy test plant response; settings: Heteranthera limosa; Flood, 250 g ai/ha; scale of 0 to 100 where 0 is no effect and 100 is complete control; 13 to 15 days; read-out: Ducksalad plant response rating
Method in brief: as §1

[4] = test system: barnyardgrass (Echinochloa crus-galli); test: Test C flooded paddy test plant response; settings: Echinochloa crus-galli; Flood, 250 g ai/ha; scale of 0 to 100 where 0 is no effect and 100 is complete control; 13 to 15 days; read-out: Barnyardgrass plant response rating
Method in brief: as §1

[5] = test system: blackgrass (Alopecurus myosuroides); test: Test D pre-/postemergence plant response; settings: Alopecurus myosuroides; for pest or weed control at 16 g/ha: 16 g ai/ha; for pest or weed control at 31 g/ha: 31 g ai/ha; for pest or weed control at 62 g/ha: 62 g ai/ha; for pest or weed control at 125 g/ha: 125 g ai/ha
Method in brief: (§2)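 Seeds were planted in a loam and sand blend and sprayed preemergence. In parallel, seedlings grown in peat moss/vermiculite medium were sprayed postemergence at 2 to 18 cm height. Both used a surfactant-containing non-phytotoxic solvent. Greenhouse ratings at 13 to 15 days used a 0–100 control scale.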

[6] = test system: lambsquarters (Chenopodium album); test: Test D pre-/postemergence plant response; settings: Chenopodium album; for pest or weed control at 16 g/ha: 16 g ai/ha; for pest or weed control at 31 g/ha: 31 g ai/ha; for pest or weed control at 62 g/ha: 62 g ai/ha; for pest or weed control at 125 g/ha: 125 g ai/ha
Method in brief: as §2

[7] = test system: winter wheat (Triticum aestivum); test: Test D pre-/postemergence plant response; settings: Triticum aestivum; for plant injury at 16 g/ha: 16 g ai/ha; for plant injury at 31 g/ha: 31 g ai/ha; for plant injury at 62 g/ha: 62 g ai/ha; for plant injury at 125 g/ha: 125 g ai/ha
Method in brief: as §2

[8] = test system: galium (catchweed bedstraw, Galium aparine); test: Test D pre-/postemergence plant response; settings: Galium; for pest or weed control at 16 g/ha: 16 g ai/ha; for pest or weed control at 31 g/ha: 31 g ai/ha; for pest or weed control at 62 g/ha: 62 g ai/ha; for pest or weed control at 125 g/ha: 125 g ai/ha
Method in brief: as §2

[9] = test system: large (Lg) crabgrass (Digitaria sanguinalis); test: Test D pre-/postemergence plant response; settings: Digitaria sanguinalis, post-emergence, Postemergence
Method in brief: as §2

[10] = post-emergence, Postemergence, scale 0 to 100 (0 no effect, 100 complete control), read-out: Blackgrass plant response rating
[11] = post-emergence, Postemergence, scale 0 to 100, 0 no effect, 100 complete control, read-out: Plant response rating, Blackgrass
[12] = pre-emergence, Preemergence, scale 0 to 100 (0 no effect, 100 complete control), read-out: Plant response rating, Blackgrass
[13] = post-emergence, Postemergence, scale 0 to 100 (0 no effect, 100 complete control), read-out: Lambsquarters plant response rating
[14] = post-emergence, Postemergence, scale 0 to 100, 0 no effect, 100 complete control, read-out: Plant response rating, Lambsquarters
[15] = pre-emergence, Preemergence, scale 0 to 100 (0 no effect, 100 complete control), read-out: Plant response rating, Lambsquarters
[16] = post-emergence, Postemergence, scale 0 to 100 (0 no effect, 100 complete control), read-out: Wheat plant response rating
[17] = post-emergence, Postemergence, scale 0 to 100, 0 no effect, 100 complete control, read-out: Plant response rating, Wheat
[18] = pre-emergence, Preemergence, scale 0 to 100 (0 no effect, 100 complete control), read-out: Plant response rating, Wheat
[19] = post-emergence, Postemergence, scale 0 to 100 (0 no effect, 100 complete control), read-out: Galium plant response rating
[20] = post-emergence, Postemergence, scale 0 to 100, 0 no effect, 100 complete control, read-out: Plant response rating, Galium
[21] = pre-emergence, Preemergence, scale 0 to 100 (0 no effect, 100 complete control), read-out: Plant response rating, Galium

Molecule FC(F)(F)c1cc(-c2ccccc2Oc2ncc(Cl)cn2)on1 [Compound 63, 5-chloro-2-[2-[3-(trifluoromethyl)-5-isoxazolyl]phenoxy]pyrimidine] has a plant injury at 250 g/ha [1] of 25%, a pest or weed control at 250 g/ha [2] of 85% and a pest or weed control at 250 g/ha [3] of 100%. It also gave a pest or weed control at 250 g/ha [4] of 60%, a pest or weed control at 16 g/ha [5, 10] of 5% and a pest or weed control at 31 g/ha [5, 10] of 10%. It also gave a pest or weed control at 62 g/ha [5, 11] of 20%, a pest or weed control at 125 g/ha [5, 11] of 25% and a pest or weed control at 125 g/ha ([5]; pre-emergence, Preemergence, read-out: Plant response rating (scale 0 to 100), Blackgrass) of 90%. For the same molecule, the pest or weed control at 16 g/ha [5, 12] was 30%, the pest or weed control at 31 g/ha [5, 12] was 85% and the pest or weed control at 62 g/ha [5, 12] was 90%. For the same molecule, the pest or weed control at 16 g/ha [6, 13] was 10%, the pest or weed control at 31 g/ha [6, 13] was 70% and the pest or weed control at 62 g/ha [6, 14] was 85%. It also gave a pest or weed control at 125 g/ha [6, 14] of 90%, a pest or weed control at 125 g/ha ([6]; pre-emergence, Preemergence, read-out: Plant response rating (scale 0 to 100), Lambsquarters) of 95% and a pest or weed control at 16 g/ha [6, 15] of 95%. It also gave a pest or weed control at 31 g/ha [6, 15] of 90%, a pest or weed control at 62 g/ha [6, 15] of 90% and a plant injury at 16 g/ha [7, 16] of 0%. The plant injury at 31 g/ha [7, 16] was 0%, the plant injury at 62 g/ha [7, 17] was 5% and the plant injury at 125 g/ha [7, 17] was 5%. The plant injury at 125 g/ha ([7]; pre-emergence, Preemergence, read-out: Plant response rating (scale 0 to 100), Wheat) was 45%, the plant injury at 16 g/ha [7, 18] was 0% and the plant injury at 31 g/ha [7, 18] was 0%. The plant injury at 62 g/ha [7, 18] was 10%, the pest or weed control at 16 g/ha [8, 19] was 60% and the pest or weed control at 31 g/ha [8, 19] was 70%. It also gave a pest or weed control at 62 g/ha [8, 20] of 70%, a pest or weed control at 125 g/ha [8, 20] of 70% and a pest or weed control at 125 g/ha ([8]; pre-emergence, Preemergence, read-out: Plant response rating (scale 0 to 100), Galium) of 98%. The pest or weed control at 16 g/ha [8, 21] was 75%, the pest or weed control at 31 g/ha [8, 21] was 98% and the pest or weed control at 62 g/ha [8, 21] was 98%. It also gave a pest or weed control at 16 g/ha ([9]; 16 g ai/ha, scale 0 to 100 (0 no effect, 100 complete control), read-out: Crabgrass, Large plant response rating) of 5%, a pest or weed control at 31 g/ha ([9]; 31 g ai/ha, scale 0 to 100 (0 no effect, 100 complete control), read-out: Crabgrass, Large plant response rating) of 5% and a pest or weed control at 62 g/ha ([9]; 62 g ai/ha, scale 0 to 100, 0 no effect, 100 complete control, read-out: Plant response rating, Crabgrass, Large) of 10%. The pest or weed control at 125 g/ha ([9]; 125 g ai/ha, scale 0 to 100, 0 no effect, 100 complete control, read-out: Plant response rating, Crabgrass, Large) was 35%.
